Data as given in ChEMBL document CHEMBL1154072, “An efficient steroid pharmacophore-based strategy to identify new aromatase inhibitors” (Eur J Med Chem, 2009).

Legend:
[1] = biological target: T1, Aromatase (Homo sapiens, UniProt P11511); assay: Inhibition of human placental aromatase assessed as conversion of [1-beta-3H]androstenedione to [1beta-3H]estrone after 20 mins by liquid scintillation counting
T1 sequence (P11511 whole entry): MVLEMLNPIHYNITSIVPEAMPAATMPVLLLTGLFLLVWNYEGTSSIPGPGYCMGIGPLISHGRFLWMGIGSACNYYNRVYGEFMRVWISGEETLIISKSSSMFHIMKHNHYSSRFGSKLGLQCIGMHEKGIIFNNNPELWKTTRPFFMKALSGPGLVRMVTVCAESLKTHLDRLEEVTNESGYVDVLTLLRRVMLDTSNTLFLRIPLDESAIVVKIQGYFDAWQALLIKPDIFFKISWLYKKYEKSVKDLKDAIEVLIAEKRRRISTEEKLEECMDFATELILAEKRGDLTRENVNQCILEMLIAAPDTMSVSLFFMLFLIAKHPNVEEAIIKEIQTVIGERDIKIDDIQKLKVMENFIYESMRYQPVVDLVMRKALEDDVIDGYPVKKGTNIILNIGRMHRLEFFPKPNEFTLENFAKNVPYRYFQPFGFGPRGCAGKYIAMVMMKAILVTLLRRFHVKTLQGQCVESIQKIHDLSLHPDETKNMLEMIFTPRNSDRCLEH

[2] = biological target: T1, Aromatase; assay: Competitive inhibition of human placental aromatase by Lineweaver-Burke plot analysis
[3] = biological target: T1, Aromatase; assay: Inhibition of human placental aromatase assessed as conversion of [1-beta-3H]androstenedione to […] at 30 uM after 20 mins by liquid scintillation counting
[4] = biological target: T1, Aromatase; assay: Inactivation of human placental aromatase assessed as residual activity at 7.5 uM after 12 mins in presence of 0.5 mM L-cysteine; details: 0.2 h
[5] = biological target: T1, Aromatase; assay: Inhibition of human placental aromatase assessed as conversion of [1-beta-3H]androstenedione to […] at 100 uM after 20 mins by liquid scintillation counting; details: for inhibition (INH): 100 µM

Molecule `CC1C2=CC(=O)CCC2(C)C2CCC3(C)C(=O)CCC3C12` (centres undefined) has an IC50 [1] of 274 nM and a Ki [2] of 266 nM.

In the case of `CC1C(O)CC23COC(=O)C2=CCCC3C1(C)CCC1=CC(=O)OC1` (centres undefined), the IC50 [1] is reported as 126000 nM.

Work on `CCCCSC(=O)[C@@]1(C)CC[C@H]2[C@@H](CC=C3C[C@@H](OC(C)=O)CC[C@@]32C)[C@@H]1CC#N` yielded an inhibition at 30 µM [3] of 21%.

`C[C@H]1C2=CC(=O)CCC(C)(O2)[C@H]2CC[C@]3(C)C(=O)CC[C@H]3[C@H]12` (some centres undefined) was tested, and the IC50 [1] was 9800 nM.

In the case of `CCCC(=O)Oc1cc(OC(=O)CCC)c2c(C)cc(=O)oc2c1`, the IC50 [1] is reported as 176000 nM.

`Cc1nc2c(cc1C#N)C(Nc1ccc(Cl)cc1)Oc1ccc([N+](=O)[O-])cc1-2` (centres undefined) was tested, and the IC50 [1] was 678 nM, the Activity [4] was “Active” and the Ki [2] was 385 nM.

With `CC/C(=C1\C=CC(=O)S1)C(CC)c1ccc(OC(C)=O)cc1` (centres undefined) the IC50 [1] was 15500 nM.

`C=C1C(=O)O[C@H]2C[C@@H](C)[C@@H]3CC(=O)OC[C@@]3(C)C[C@H]12` was tested, and the “inhibition (INH)” value [5] was “Not Active”.

With `CCn1cc(C(=O)O)c(=O)c2ccc(-c3c[nH]nc3C)nc21` the “inhibition (INH)” value [5] was “Not Active”.

`CCOC(=O)C1=C(C)C2C=C(c3cccs3)CC(c3ccc(Cl)cc3)=C2OC1=O` (centres undefined) was tested, and the inhibition at 100 µM [5] was 26%.

`C[C@]12CCC(=O)C(O)=C1CC[C@@H]1[C@@H]2CC[C@]2(C)C(=O)CC[C@@H]12` [FORMESTANE] was tested, and the IC50 [1] was 92 nM.
